According to ChEMBL document CHEMBL1759971, “Substituted phenyl triazoles as selective inhibitors of 11β-Hydroxysteroid Dehydrogenase Type 1” (Bioorg Med Chem Lett, 2011):

Tests used:
[1] = molecular target: T1, Nuclear receptor subfamily 1 group I member 2 (Homo sapiens, UniProt O75469); experiment: Agonist activity at PXR; type: functional
T1 sequence (O75469 whole entry): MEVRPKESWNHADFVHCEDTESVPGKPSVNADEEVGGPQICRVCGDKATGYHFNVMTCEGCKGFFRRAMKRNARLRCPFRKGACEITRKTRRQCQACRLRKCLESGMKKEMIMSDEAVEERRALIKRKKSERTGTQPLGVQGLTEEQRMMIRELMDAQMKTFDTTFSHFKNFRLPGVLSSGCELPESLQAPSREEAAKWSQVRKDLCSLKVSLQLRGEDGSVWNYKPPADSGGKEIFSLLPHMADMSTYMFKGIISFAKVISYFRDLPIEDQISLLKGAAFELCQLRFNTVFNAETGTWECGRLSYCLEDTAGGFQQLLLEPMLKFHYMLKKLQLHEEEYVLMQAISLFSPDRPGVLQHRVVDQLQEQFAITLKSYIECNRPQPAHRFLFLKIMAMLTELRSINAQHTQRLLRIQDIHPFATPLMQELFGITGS

[2] = molecular target: 11-beta-hydroxysteroid dehydrogenase 1 (Homo sapiens, UniProt P28845); experiment: Inhibition of human 11beta-HSD1 expressed in CHO-K1 cells assessed as conversion of [3H]cortisone to [3H]cortisol by scintillation counting; type: cell-based
Chain of 11-beta-hydroxysteroid dehydrogenase 1 (Homo sapiens, UniProt P28845) (P28845 whole entry): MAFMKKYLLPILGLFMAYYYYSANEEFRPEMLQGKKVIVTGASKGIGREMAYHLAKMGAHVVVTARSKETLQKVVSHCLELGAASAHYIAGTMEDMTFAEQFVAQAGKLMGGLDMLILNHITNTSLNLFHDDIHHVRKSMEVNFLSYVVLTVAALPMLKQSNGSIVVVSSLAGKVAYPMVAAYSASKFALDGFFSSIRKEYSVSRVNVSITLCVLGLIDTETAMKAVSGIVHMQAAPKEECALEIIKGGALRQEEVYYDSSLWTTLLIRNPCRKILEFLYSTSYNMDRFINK

[3] = test system: Mus musculus; experiment: Inhibition of 11beta-HSD1 in ICR mouse assessed as conversion of [3H]cortisone to [3H]cortisol at 10 mg/kg, po after 4 hrs by scintillation counting; type: functional
[4] = molecular target: 11-beta-hydroxysteroid dehydrogenase 1 (Mus musculus, UniProt P50172); experiment: Inhibition of mouse 11beta-HSD1 expressed in CHO-K1 cells assessed as conversion of [3H]cortisone to [3H]cortisol by scintillation counting; type: cell-based
Chain of 11-beta-hydroxysteroid dehydrogenase 1 (Mus musculus, UniProt P50172) (P50172 whole entry): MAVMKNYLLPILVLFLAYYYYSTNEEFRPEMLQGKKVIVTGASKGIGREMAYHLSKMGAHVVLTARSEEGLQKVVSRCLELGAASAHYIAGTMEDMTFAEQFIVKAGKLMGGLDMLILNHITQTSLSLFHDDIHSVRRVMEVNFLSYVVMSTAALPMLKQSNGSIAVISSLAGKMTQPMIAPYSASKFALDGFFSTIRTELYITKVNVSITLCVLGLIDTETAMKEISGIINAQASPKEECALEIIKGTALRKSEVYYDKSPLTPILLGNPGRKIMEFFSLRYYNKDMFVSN

[5] = molecular target: T2, 11-beta-hydroxysteroid dehydrogenase type 2 (Mus musculus, UniProt P51661); experiment: Inhibition of mouse 11beta-HSD2
T2 sequence (P51661 whole entry): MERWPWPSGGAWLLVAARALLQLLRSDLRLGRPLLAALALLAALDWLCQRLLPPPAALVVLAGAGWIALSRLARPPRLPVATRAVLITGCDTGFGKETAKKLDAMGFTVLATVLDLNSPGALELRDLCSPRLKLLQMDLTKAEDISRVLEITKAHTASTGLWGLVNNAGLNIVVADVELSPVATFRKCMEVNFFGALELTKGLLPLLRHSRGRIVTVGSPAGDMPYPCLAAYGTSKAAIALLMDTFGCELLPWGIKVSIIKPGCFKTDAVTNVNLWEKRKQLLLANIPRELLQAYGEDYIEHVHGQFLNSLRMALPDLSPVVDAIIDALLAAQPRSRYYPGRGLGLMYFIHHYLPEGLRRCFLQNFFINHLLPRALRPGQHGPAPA

[6] = molecular target: T3, 11-beta-hydroxysteroid dehydrogenase type 2 (Homo sapiens, UniProt P80365); experiment: Inhibition of human 11beta-HSD2
T3 sequence (P80365 whole entry): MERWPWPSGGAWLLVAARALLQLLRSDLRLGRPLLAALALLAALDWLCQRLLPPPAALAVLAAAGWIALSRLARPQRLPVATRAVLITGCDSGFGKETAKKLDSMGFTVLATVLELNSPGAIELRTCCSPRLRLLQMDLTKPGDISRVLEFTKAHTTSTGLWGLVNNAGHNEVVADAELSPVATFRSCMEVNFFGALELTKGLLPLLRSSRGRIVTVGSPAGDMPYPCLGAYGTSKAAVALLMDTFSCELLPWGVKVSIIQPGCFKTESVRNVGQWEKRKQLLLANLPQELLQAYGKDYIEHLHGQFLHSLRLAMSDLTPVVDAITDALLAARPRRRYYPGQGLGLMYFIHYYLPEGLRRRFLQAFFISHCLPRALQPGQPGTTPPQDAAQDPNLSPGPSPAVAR

[7] = test system: Mus musculus; experiment: Inhibition of 11beta-HSD1 in ICR mouse assessed as conversion of [3H]cortisone to [3H]cortisol at 10 mg/kg, po after 16 hrs by scintillation counting; type: functional
[8] = molecular target: T1, Nuclear receptor subfamily 1 group I member 2; experiment: Agonist activity at PXR at 10 uM; type: functional
[9] = Blood clearance in C57BL/6 mouse; type: ADME, organism-based
[10] = molecular target: Cytochrome P450 3A4 (Homo sapiens, UniProt P08684); experiment: Inhibition of CYP3A4; type: ADME
Chain of Cytochrome P450 3A4 (P08684 whole entry): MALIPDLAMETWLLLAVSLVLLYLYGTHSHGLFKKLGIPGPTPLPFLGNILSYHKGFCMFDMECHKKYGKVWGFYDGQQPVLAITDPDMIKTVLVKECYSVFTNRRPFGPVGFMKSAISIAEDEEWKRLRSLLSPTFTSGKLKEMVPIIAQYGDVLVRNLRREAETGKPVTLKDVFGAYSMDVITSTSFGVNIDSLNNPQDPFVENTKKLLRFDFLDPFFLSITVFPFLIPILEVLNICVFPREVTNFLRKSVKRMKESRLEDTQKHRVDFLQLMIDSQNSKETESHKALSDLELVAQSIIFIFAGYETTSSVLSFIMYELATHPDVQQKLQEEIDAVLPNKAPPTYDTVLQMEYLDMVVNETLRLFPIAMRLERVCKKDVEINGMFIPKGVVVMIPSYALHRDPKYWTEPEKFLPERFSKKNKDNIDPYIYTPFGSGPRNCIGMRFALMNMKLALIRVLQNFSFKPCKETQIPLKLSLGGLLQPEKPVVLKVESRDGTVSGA

[11] = molecular target: Cytochrome P450 2C9 (Homo sapiens, UniProt P11712); experiment: Inhibition of CYP2C9; type: ADME
Chain of Cytochrome P450 2C9 (P11712 whole entry): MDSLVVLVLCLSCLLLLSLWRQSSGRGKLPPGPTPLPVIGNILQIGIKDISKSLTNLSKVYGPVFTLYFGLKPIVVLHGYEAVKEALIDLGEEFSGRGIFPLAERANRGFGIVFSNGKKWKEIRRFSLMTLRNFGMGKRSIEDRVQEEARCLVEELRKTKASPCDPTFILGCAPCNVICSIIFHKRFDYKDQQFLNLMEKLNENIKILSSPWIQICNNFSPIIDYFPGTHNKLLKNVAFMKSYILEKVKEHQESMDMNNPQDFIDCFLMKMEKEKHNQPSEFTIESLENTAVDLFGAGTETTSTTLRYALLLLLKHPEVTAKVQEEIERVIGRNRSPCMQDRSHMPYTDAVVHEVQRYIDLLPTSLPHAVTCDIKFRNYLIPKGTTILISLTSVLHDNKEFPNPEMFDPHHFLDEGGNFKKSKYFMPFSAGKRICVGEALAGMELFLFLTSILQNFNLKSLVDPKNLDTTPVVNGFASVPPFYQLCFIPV

[12] = Oral bioavailability in C57BL/6 mouse; type: ADME, organism-based; settings: in vivo
[13] = molecular target: Cytochrome P450 2D6 (Homo sapiens, UniProt P10635); experiment: Inhibition of CYP2D6; type: ADME
Chain of Cytochrome P450 2D6 (P10635 whole entry): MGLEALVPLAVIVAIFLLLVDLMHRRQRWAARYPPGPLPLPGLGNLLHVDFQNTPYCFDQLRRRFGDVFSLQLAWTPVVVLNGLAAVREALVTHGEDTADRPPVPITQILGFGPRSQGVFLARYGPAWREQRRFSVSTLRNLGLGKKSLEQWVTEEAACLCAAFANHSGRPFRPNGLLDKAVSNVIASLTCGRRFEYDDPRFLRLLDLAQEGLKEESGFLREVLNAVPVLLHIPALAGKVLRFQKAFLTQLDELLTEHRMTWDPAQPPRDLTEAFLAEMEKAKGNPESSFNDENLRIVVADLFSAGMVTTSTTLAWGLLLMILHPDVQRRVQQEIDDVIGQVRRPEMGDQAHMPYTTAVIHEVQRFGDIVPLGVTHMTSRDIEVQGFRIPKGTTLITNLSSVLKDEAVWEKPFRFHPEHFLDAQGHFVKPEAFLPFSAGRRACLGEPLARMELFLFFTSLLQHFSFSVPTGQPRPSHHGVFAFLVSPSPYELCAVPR

[14] = Half life in C57BL/6 mouse; type: ADME, organism-based; settings: in vivo
[15] = test system: Mus musculus; experiment: Inhibition of 11beta-HSD1 in ICR mouse assessed as conversion of [3H]cortisone to [3H]cortisol at 10 mg/kg, po after 1 hr by scintillation counting; type: functional

Row | Structure (SMILES) | EC50 [1] [nM] | IC50 [2] [nM] | IC50 [4] [nM] | IC50 [5] [nM] | IC50 [6] [nM] | Activity [8] [%] | clearance [9] [mL/min/kg] | IC50 [10] [nM] | IC50 [11] [nM] | bioavailability [12] [%] | IC50 [13] [nM] | half-life [14] [h] | inhibition in vivo at 10 mg/kg [3] [%] | inhibition in vivo at 10 mg/kg [7] [%] | inhibition in vivo at 10 mg/kg [15] [%]
1 | Cn1c(-c2ccc(NC(=O)c3cnccn3)cc2Cl)nnc1C1(c2ccc(Cl)cc2)CCC1 | > 30000 | 2.6 | 1.9 | > 4000 | > 4000 | 33 |  |  |  |  |  |  | 82 | 46 | 
2 | CC(=O)Nc1ccc(-c2nnc(C3(c4ccc(Cl)cc4)CCC3)n2C)c(Cl)c1 | > 30000 | < 1 | < 1 | > 4000 | > 4000 | 34 |  |  |  |  |  |  | 79 | 27 | 
3 | Cn1c(-c2ccc(-c3cccnc3)cc2F)nnc1C1(c2ccc(Cl)cc2)CCC1 | > 30000 | 1.8 | 1.6 | > 4000 | > 4000 | 43 |  |  |  |  |  |  | 86 | 15 | 
4 | Cn1c(-c2ccc(C(=O)O)cc2Cl)nnc1C1(c2ccc(Cl)cc2)CCC1 | 18000 | 11 | 19 | > 4000 | > 4000 | 28 |  |  |  |  |  |  | 90 | 38 | 
5 | Cn1c(-c2ccc(-c3cnccn3)cc2Cl)nnc1C1(c2ccc(Cl)cc2)CC(F)C1 (stereo not drawn) | > 30000 | 5.5 | 2.3 | > 4000 | > 4000 | 23 | 5 | 36000 | 26000 | 96 | 25000 | 6.8 | 95 | 80 | 
6 | Cn1c(-c2ccc(-c3cnc(N)nc3)cc2)nnc1C1(c2ccc(Cl)cc2)CCC1 | > 30000 | 2.2 | 2.2 | > 4000 | > 4000 | 3 |  |  |  |  |  |  | 34 | -5 | 
7 | Cn1c(-c2ccc(-c3cnccn3)cc2)nnc1C1(c2ccc(Cl)cc2)CCC1 | > 30000 | 2.3 | < 1 | > 4000 | > 4000 | 23 | 54 | 10000 | 13000 | 30 | 16000 | 0.7 | 93 | 79 | 
8 | Cn1c(-c2ccc(-c3cc(=O)[nH]cn3)cc2)nnc1C1(c2ccc(Cl)cc2)CCC1 | > 30000 | 8.8 | 2.8 | > 4000 | > 4000 | 15 |  |  |  |  |  |  | 26 | 14 | 
9 | C1CCCn2c(nnc2C23CC4CC(CC(C4)C2)C3)CC1 |  | 7.8 | 98 | > 4000 | > 4000 |  |  |  |  |  |  |  | 21 |  | 31
10 | Cn1c(-c2ccc(-c3cnccn3)cc2OC(F)F)nnc1C1(c2ccc(Cl)cc2)CCC1 | > 30000 | 3.7 | 1 | > 4000 | > 4000 | 45 |  |  |  |  |  |  | 88 | 14 | 
11 | Cn1c(-c2ccc(NC(=O)c3cnccn3)cc2)nnc1C1(c2ccc(Cl)cc2)CCC1 | > 30000 | 69 | 11 | > 4000 | > 4000 | -2.5 |  |  |  |  |  |  | 67 | 5 | 

The next lines start with results.

Row | EC50 [1] [nM] | IC50 [2] [nM] | IC50 [4] [nM] | IC50 [5] [nM] | IC50 [6] [nM] | Activity [8] [%] | clearance [9] [mL/min/kg] | IC50 [10] [nM] | IC50 [11] [nM] | bioavailability [12] [%] | IC50 [13] [nM] | half-life [14] [h] | Structure (SMILES) | inhibition in vivo at 10 mg/kg [3] [%] | inhibition in vivo at 10 mg/kg [7] [%] | inhibition in vivo at 10 mg/kg [15] [%]
12 | > 30000 | 11 | 6 | > 4000 | > 4000 | 35 |  |  |  |  |  |  | Cn1c(-c2ccc(-c3ccon3)cc2)nnc1C1(c2ccc(Cl)cc2)CCC1 | 95 | 67 | 
13 | > 30000 | 8 | 2.8 | > 4000 | > 4000 | 21 |  |  |  |  |  |  | Cn1c(-c2ccc(NC(=O)c3ccno3)cc2)nnc1C1(c2ccc(Cl)cc2)CCC1 | 69 | 11 | 
14 | > 30000 | 540 | 3 | > 4000 | > 4000 | 11 |  |  |  |  |  |  | Cn1c(-c2ccc(C(=O)NC(C)(C)C)cc2)nnc1C1(c2ccc(Cl)cc2)CCC1 | 71 | 5 | 
15 | > 30000 | 650 | 130 | > 4000 | > 4000 | 10 |  |  |  |  |  |  | Cn1c(-c2ccc(C(=O)N3CCCC3)cc2)nnc1C1(c2ccc(Cl)cc2)CCC1 | 24 | 0 | 
16 | > 30000 | 5.8 | 9.1 | > 4000 | > 4000 | 21 |  |  |  |  |  |  | CC(=O)Nc1ccc(-c2nnc(C3(c4ccc(Cl)cc4)CCC3)n2C)cc1 | 59 | 10 | 
